The target in test [1] is T1, human mitochondrial CIpP (HsCIpP) (Homo sapiens, UniProt Q16740).
T1 construct: made in house; host or cells: E. coli SG1146 (BL21(DE3) ΔclpP::cat)
As to the kind of experiment: Screen of ADEP analogs against HsCIpP: relative degradation (RD) index, casein-FITC degradation relative to E. coli CIpAP. Also on record: key: casein-FITC degradation by HsClpP relative to EcClpAP. The class given is biochemical. The source says: Structural analogs of acyldepsipeptide (ADEP) (Goodreid et al., 2016) that were previously developed as potential antibiotics against bacterial CIpP were screened and assessed for their ability to activate and dysregulate the protease activity of HsCIpP, by measuring their relative degradation (RD) index. Note that ADEP-28 was also previously reported by Carney et al. (2014). Details of the experimental protocol have been described in Leung et al., 2011. The RD index is defined as follows: […]
Δφ is the change in fluorescence after 6 hr of starting the reaction measured using 485 nm excitation and 535 nm emission, which primarily detects the signal from casein-FITC. E. coli CIpAP was used as a benchmark for maximum CIpP proteolytic activity. The CIpP in the numerator can be from any other organism. RD25 measurements refer to the measurement in the presence of 25 μM compound. All ADEP analogs were first screened at 25 μM, and their RD25 scores were calculated using the above formula and method as described in Leung et al., 2011 (FIG. 1A). Those that achieved RD25≥0.87 were screened a second time at 5 μM, followed by calculation of their RD5 scores. The top analogs with RD5≥0.74 were screened a third time at 1 μM, followed by calculation of their RD1 scores (FIG. 1B).
To identify ADEP analogs that allow HsCIpP to degrade folded proteins independent of HsCIpX+ATP (i.e., that activate or dysregulate HsCIpP), the inventors employed the in vitro screening method that was used for identifying small molecule activators of Escherichia coli CIpP (EcCIpP) (Leung et al., 2011). In this approach, the ability of HsCIpP to degrade FITC-labeled casein (casein-FITC) was measured and compared to the ability of EcCIpAP to degrade casein-FITC. This is quantitatively expressed as relative degradation (RD) index (Leung et al., 2011).

In a further test the target is T2, HsCIpP (Homo sapiens, UniProt Q16740, P57S).
T2 construct: 2x(His6-thrombin)-SUMO (N, cleaved yes); made in house; host or cells: E. coli (SG1146 stated for HsClpP; 'a similar protocol' for HsClpX)
As to the kind of experiment: Peptidase activity assay (Ac-WLA-AMC cleavage) with ADEP. The format is biochemical. The settings on record: 6 μM HsCIpP, 100 μM Ac-WLA-AMC. On the procedure: The peptidase activity of purified, untagged HsCIpP was assessed by monitoring the degradation of peptidyl substrates labelled with a C-terminal 7-amido-4-methylcoumarin (AMC) fluorophore. […] To identify a suitable peptidyl substrate, commercially available AMC-labelled peptides were purchased and tested for degradation by HsCIpP. These include N-acetyl-Trp-Leu-Ala-AMC (Ac-WLA-AMC) (R&D Systems) that was also previously used by Csizmadia et (Csizmadia et al., 2016), benzyloxycarbonyl-Arg-Arg-AMC (Z-RR-AMC) (Sigma-Aldrich), N-acetyl-Leu-Glu-His-Asp-AMC […] (Sigma-Aldrich), N-acetyl-Val-Glu-Thr-Asp-AMC (Ac-VETD-AMC) (Sigma-Aldrich), and benzyloxycarbonyl-Leu-Leu-Leu-AMC (Z-LLL-AMC) (Sigma-Aldrich). Suc-LY-AMC (MP Biomedicals) was also tested as a negative control. All stock solutions of the AMC-labelled peptides were prepared by dissolving the lyophilized peptides in DMSO at 90 mM or a lower concentration recommended by the manufacturer. […] Degradation of the peptidyl substrates and subsequent release of the free AMC moiety was monitored by fluorescence with λex=360 nm and λem=440 nm using the EnSpire 2300 Multilabel Reader (Perkin-Elmer) set to perform a reading every 30 s with 20 flashes. A total of 240 readings were collected for each of three independent replicates prepared for each peptidyl substrate. […]
Initial degradation rates data were analyzed using the Hill model. […]

The next test has as its system HEK293 cells. The settings on record: reported (Bram et al., 2006); cited from earlier work.

The text below walks through data of patent publication US20210171576A1, “METHODS FOR TREATING CANCER WITH ACYLDEPSIPEPTIDE ANALOGS” (priority 2018, published 2021).

Where a SMILES comes first, the peptide text is derived from it. Bridges are numbered along the chain shown (N, C = ends). [ ]: non-standard residue; d: D form. The star is where a group is joined. Pro(4R-Me) = C[C@H]1CN[C@H](C(=O)O)C1; NMeA = CN[C@@H](C)C(=O)O; X1 = CCC/C=C/C=C/C(=O)*

T1 sequence (Q16740 57-277): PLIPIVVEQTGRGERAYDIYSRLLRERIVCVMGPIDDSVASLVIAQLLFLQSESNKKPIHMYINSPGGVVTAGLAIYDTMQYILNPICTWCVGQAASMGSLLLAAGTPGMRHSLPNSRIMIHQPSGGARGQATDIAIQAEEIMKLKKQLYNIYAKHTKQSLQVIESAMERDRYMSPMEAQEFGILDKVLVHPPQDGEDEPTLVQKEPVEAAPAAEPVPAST
T2 sequence (Q16740 57-277 P57S): as the sequence (Q16740 57-277) above, with P1S counted along it

In the case of `CCC/C=C/C=C/C(=O)N[C@@H](Cc1ccccc1)C(=O)N[C@H]1COC(=O)[C@@H]2C[C@@H](C)CN2C(=O)[C@H](C)NC(=O)[C@H](C)N(C)C(=O)[C@@H]2CCCN2C1=O` [ADEP-04] (X1-FSP[NMeA]A[Pro(4R-Me)]; ester 2-C), the “Hs RD1” value in test [1] (RD value at 1 μM of the ADEP analog) came to 0.32. In addition, the “Hs RD5” value in test [1] (RD value at 5 μM of the ADEP analog) turned out to be 0.78. For the same compound, in test [1] (RD value at 25 μM of the ADEP analog, measure of ability to activate HsCIpP), the “Hs RD25” value is 1.03. In addition, on HsCIpP, the “Hill coefficient (h), peptidase activity” value turned out to be 0.8.
The IC50 is the concentration needed to halve the response being measured. Regarding `N.N.[Cl][Pt][Cl]` [cisplatin], the half-inhibitory concentration (IC50) with HEK293 cells was 0.43 µM.
Consider `Cc1nc(N)nc(N)c1-c1ccc(Cl)c(Cl)c1` [Metoprine], for which the IC50 with HEK293 cells is 0.8 µM.
